Measured values published in patent publication US20250255889A1, “METHODS FOR TREATMENT SELECTION FOR CHRONIC LYMPHOCYTIC LEUKEMIA (CLL)” (The Broad Institute, Inc., priority 2022, published 2025).

Test system: primary CLL samples (CD19+ and CD5+ cells)
Experiment: High-throughput dynamic BH3 profiling (HT-DBP): drug-induced apoptotic priming (delta priming), cytochrome c release after BH3 peptide
Assay type: cell-based, human
Summary of the method: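 Primary CLL cells (CD19+/CD5+) are treated with the agent or DMSO carrier, then briefly exposed to a fixed concentration of a promiscuous BH3 peptide such as BIM. Mitochondrial cytochrome c release serves as the priming surrogate. Delta priming is drug-treated priming minus DMSO-treated priming, run in high-throughput format.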

[1] = peptide BAD 0.3 uM, feature M-CLL
[2] = peptide BAD 0.3 uM, feature U-CLL
[3] = peptide BAD 0.3 uM, feature priortrt_Post
[4] = peptide MS1 2.5 uM, feature EC-m4
[5] = peptide PUMA 1 uM, feature FBXW7
[6] = peptide BIM 0.01 uM, feature loss_15q15.1b
[7] = peptide BIM 0.01 uM, feature loss_20p11.22
[8] = peptide PUMA 1 uM, feature loss_6q21
[9] = peptide PUMA 1 uM, feature loss_3p21.31
[10] = peptide MS1 2.5 uM, feature m-CLL
[11] = peptide PUMA 1 uM, feature i-CLL
[12] = peptide BAD 0.3 uM, feature ITIH2
[13] = peptide BAD 0.3 uM, feature i-CLL
[14] = peptide BAD 0.3 uM, feature BIRC3
[15] = peptide BAD 0.3 uM, feature loss_9p21.3
[16] = peptide BAD 0.3 uM, feature loss_17q11.2
[17] = peptide BIM 0.01 uM, feature BCOR
[18] = peptide BIM 0.01 uM, feature n-CLL
[19] = peptide MS1 2.5 uM, feature SAMHD1
[20] = peptide MS1 2.5 uM, feature BIRC3
[21] = peptide MS1 2.5 uM, feature ITIH2
[22] = peptide MS1 2.5 uM, feature loss_9p21.3
[23] = peptide MS1 2.5 uM, feature loss_17q11.2

In the case of COc1ccc(C2=N[C@@H](c3ccc(Cl)cc3)[C@@H](c3ccc(Cl)cc3)N2C(=O)N2CCNC(=O)C2)c(OC(C)C)c1 [Nutlin-3], the “drug-induced apoptotic priming by expression cluster” value (EC-m1) is reported as “most sensitive”, the direction (Feature FBXW7) is reported as “Resistant” and the direction (Feature priortrt_Post) is reported as “Resistant”. The drug-induced apoptotic priming (across CLL subtypes, 65 primary CLL samples, 20 hours drug) was “high priming”, the direction [1] was “Sensitive” and the dprim_pearson_corr [1] was 0.4093. For the same compound, the direction [2] was “Resistant”, the dprim_pearson_corr [2] was −0.4093 and the direction [3] was “Resistant”. The dprim_pearson_corr [3] was −0.4166, the direction [4] was “Sensitive” and the dprim_pearson_corr [4] was 0.3373. For the same compound, the direction (peptide PUMA 1 uM, feature EC-m4) was “Sensitive”, the direction [5] was “Resistant” and the direction (peptide PUMA 1 uM, feature loss_17p13.1) was “Resistant”. The direction (peptide PUMA 1 uM, feature priortrt_Post) was “Resistant”.

CC(C)c1cc(C(=O)N2Cc3ccc(CN4CCN(C)CC4)cc3C2)c(O)cc1O [Onalespib] was tested, and the direction (peptide BAD 0.3 uM, feature loss_1q42.13) was “Sensitive”, the direction (peptide BAD 0.3 uM, feature loss_13q14.13) was “Sensitive” and the direction (peptide BAD 0.3 uM, feature loss_16p11.2) was “Sensitive”. The direction [6] was “Resistant”, the direction [7] was “Resistant” and the direction (peptide MS1 2.5 uM, feature loss_19p13.11) was “Sensitive”. For the same compound, the direction [8] was “Resistant”.

With C=CC(=O)Nc1cc(Nc2nccc(-c3cn(C)c4ccccc34)n2)c(OC)cc1N(C)CCN(C)C [Osimertinib] the direction (peptide BAD 0.3 uM, feature IGLV321_R110) was “Resistant”, the direction (peptide BAD 0.3 uM, feature MYD88) was “Resistant” and the direction (peptide BAD 0.3 uM, feature NOTCH1) was “Resistant”. For the same compound, the direction (peptide BAD 0.3 uM, feature RPS15) was “Resistant”, the direction (peptide BAD 0.3 uM, feature loss_6q) was “Resistant” and the direction (peptide BIM 0.01 uM, feature BIRC3) was “Sensitive”. The direction (peptide BIM 0.01 uM, feature EC-u2) was “Sensitive”, the direction (peptide BIM 0.01 uM, feature IGLV321_R110) was “Resistant” and the direction (peptide BIM 0.01 uM, feature NOTCH1) was “Resistant”. The direction (peptide BIM 0.01 uM, feature RPS15) was “Resistant”, the direction (peptide BIM 0.01 uM, feature loss_6q) was “Resistant” and the direction (peptide BIM 0.01 uM, feature loss_9p21.3) was “Sensitive”. For the same compound, the direction (peptide BIM 0.01 uM, feature loss_17q11.2) was “Sensitive”, the direction (peptide MS1 2.5 uM, feature EC-i) was “Resistant” and the direction (peptide MS1 2.5 uM, feature IGLV321_R110) was “Resistant”. For the same compound, the direction (peptide MS1 2.5 uM, feature NOTCH1) was “Resistant”, the direction (peptide MS1 2.5 uM, feature RPS15) was “Resistant” and the direction (peptide MS1 2.5 uM, feature loss_6q) was “Resistant”. The direction (peptide PUMA 1 uM, feature BIRC3) was “Sensitive”, the direction (peptide PUMA 1 uM, feature MYD88) was “Resistant” and the direction [9] was “Resistant”. For the same compound, the direction (peptide PUMA 1 uM, feature loss_9p21.3) was “Sensitive” and the direction (peptide PUMA 1 uM, feature loss_17q11.2) was “Sensitive”.

In the case of O=C(CCCCCCNC(=O)c1cnc(N(c2ccccc2)c2ccccc2)nc1)NO [Ricolinostat], the direction (peptide BAD 0.3 uM, feature CARD11) is reported as “Sensitive”, the direction (peptide BIM 0.01 uM, feature i-CLL) is reported as “Resistant” and the direction [6] is reported as “Resistant”. The direction [7] was “Resistant”, the direction (peptide MS1 2.5 uM, feature CNOT3) was “Sensitive” and the direction (peptide MS1 2.5 uM, feature loss_10q24.32) was “Resistant”. For the same compound, the direction [10] was “Sensitive”, the direction (peptide PUMA 1 uM, feature CARD11) was “Sensitive” and the direction (peptide PUMA 1 uM, feature gain_16p11.2) was “Resistant”. The direction [11] was “Resistant”, the direction (peptide PUMA 1 uM, feature loss_1q21.3) was “Resistant” and the direction (peptide PUMA 1 uM, feature loss_2q31.1) was “Resistant”. For the same compound, the direction [9] was “Resistant”, the direction (peptide PUMA 1 uM, feature loss_5p15.33) was “Resistant” and the direction (peptide PUMA 1 uM, feature loss_7p22.2) was “Resistant”. The direction (peptide PUMA 1 uM, feature loss_10p12.2) was “Resistant”, the direction (peptide PUMA 1 uM, feature loss_12p13.31a) was “Resistant” and the direction (peptide PUMA 1 uM, feature loss_14q32.12) was “Resistant”. The direction (peptide PUMA 1 uM, feature loss_15q15.1b) was “Resistant”, the direction (peptide PUMA 1 uM, feature loss_16q22.1) was “Resistant” and the direction (peptide PUMA 1 uM, feature loss_17p13.3) was “Resistant”. The direction (peptide PUMA 1 uM, feature loss_20p11.22) was “Resistant” and the direction (peptide PUMA 1 uM, feature m-CLL) was “Sensitive”.

O=C(/C=C\n1cnc(-c2cc(C(F)(F)F)cc(C(F)(F)F)c2)n1)NNc1cnccn1 [Selinexor] was tested, and the direction (Feature MYD88) was “Sensitive”, the direction [12] was “Sensitive” and the direction (peptide BIM 0.01 uM, feature MYD88) was “Sensitive”. The direction (peptide PUMA 1 uM, feature loss_7q36.1) was “Sensitive” and the direction (peptide PUMA 1 uM, feature loss_8p) was “Sensitive”.

For CNC(=O)c1cc(Oc2ccc(NC(=O)Nc3ccc(Cl)c(C(F)(F)F)c3)cc2)ccn1 [Sorafenib], the direction (peptide BAD 0.3 uM, feature GNB1) was “Sensitive”, the direction (peptide BAD 0.3 uM, feature RFX7) was “Sensitive” and the direction (peptide BAD 0.3 uM, feature ZMYM3) was “Sensitive”. For the same compound, the direction [13] was “Resistant”, the direction (peptide BIM 0.01 uM, feature FBXW7) was “Resistant” and the direction (peptide BIM 0.01 uM, feature GNB1) was “Sensitive”. For the same compound, the direction (peptide BIM 0.01 uM, feature RFX7) was “Resistant”, the direction (peptide BIM 0.01 uM, feature ZMYM3) was “Resistant” and the direction (peptide BIM 0.01 uM, feature gain_19p13.3) was “Resistant”. For the same compound, the direction (peptide BIM 0.01 uM, feature loss_2q31.1) was “Resistant”, the direction (peptide BIM 0.01 uM, feature loss_10p12.2) was “Resistant” and the direction (peptide MS1 2.5 uM, feature RFX7) was “Resistant”. For the same compound, the direction (peptide MS1 2.5 uM, feature ZMYM3) was “Resistant”, the direction (peptide MS1 2.5 uM, feature gain_19p13.3) was “Resistant” and the direction (peptide MS1 2.5 uM, feature loss_2q31.1) was “Resistant”. The direction (peptide MS1 2.5 uM, feature loss_10p12.2) was “Resistant”, the direction (peptide MS1 2.5 uM, feature loss_10q24.2) was “Resistant” and the direction (peptide MS1 2.5 uM, feature loss_11q22.3) was “Resistant”. For the same compound, the direction [10] was “Sensitive”, the direction (peptide MS1 2.5 uM, feature priortrt_Post) was “Resistant” and the direction [5] was “Resistant”. For the same compound, the direction (peptide PUMA 1 uM, feature RFX7) was “Resistant” and the direction (peptide PUMA 1 uM, feature ZMYM3) was “Resistant”.

With O=C(CCCCCCC(=O)Nc1ccccc1)NO [Vorinostat] the direction (Feature EC-m2) was “Sensitive”, the direction (Feature EC-m4) was “Resistant” and the direction (peptide BIM 0.01 uM, feature EC-m2) was “Sensitive”. The direction (peptide BIM 0.01 uM, feature EC-m4) was “Resistant”, the direction (peptide PUMA 1 uM, feature EC-m2) was “Sensitive” and the direction [11] was “Resistant”. The direction [8] was “Sensitive”.

With CN1CC[C@@H](c2c(O)cc(O)c3c(=O)cc(-c4ccc(C(F)(F)F)cc4Cl)oc23)[C@@H]1CO [Voruciclib] the direction [14] was “Sensitive”, the dprim_pearson_corr [14] was 0.3672 and the direction [12] was “Sensitive”. The dprim_pearson_corr [12] was 0.3672, the direction [13] was “Sensitive” and the dprim_pearson_corr [13] was 0.4321. The direction [15] was “Sensitive”, the dprim_pearson_corr [15] was 0.3672 and the direction [16] was “Sensitive”. The dprim_pearson_corr [16] was 0.3672, the direction [17] was “Resistant” and the dprim_pearson_corr [17] was −0.4056. For the same compound, the direction [18] was “Resistant”, the dprim_pearson_corr [18] was −0.3372 and the direction [19] was “Resistant”. For the same compound, the dprim_pearson_corr [19] was −0.3337, the direction (peptide PUMA 1 uM, feature SF3B1) was “Resistant” and the direction [11] was “Sensitive”.

fludarabine was tested, and the “response (apoptotic priming)” value (IGHV mutated CLLs, FDR<0.1, t-test) was “significant response”, the direction [20] was “Sensitive” and the dprim_pearson_corr [20] was 0.4431. The direction [21] was “Sensitive”, the dprim_pearson_corr [21] was 0.5036 and the direction [22] was “Sensitive”. The dprim_pearson_corr [22] was 0.4431, the direction [23] was “Sensitive” and the dprim_pearson_corr [23] was 0.4431.
